Patent US20150239864A1, “3H-1,2-DITHIOCYCLOPENTENE-3-THIOKETONE COMPOUNDS AND APPLICATION THEREOF” (Soochow University, priority 2012, published 2015)

Legend:
HT22 cells = assay: Glutamate-induced neural oxidative stress injury model in HT22 cells, survival by MTT; assay type: cell-based, Mouse; conditions: 5 mM glutamate added with compound at 1, 10, 50 or 100 μM, MTT after 24 h
Experimental: Mouse Hippocampal neuron cell line HT22, 24-well culture plate (Corning), glutamic acid (Glutamate, Sigma), DMEM culture medium (GIBCO), fetal bovine serum (GIBCO), 3-(4,5-dimethylthiazol-2-yl)-2,5-diphenyltetrazolium bromide (MTT, Sigma), dimethyl sulfoxide (Sinopharm Group. Co. Ltd.), and microplate reader (TECAN).
2.1. Cell culture: HT22 cells were taken out of the liquid nitrogen container, and thawed quickly in a water-bath at 37° C. After that, the outside wall of cryopreservation tube was disinfected by alcohol wipes, and it was then placed in a clean bench. The cells were transferred to a centrifuge tube containing 10 ml medium and centrifuged at 1000 rpm for 3 min. After centrifugation, the supernatant was discarded, and 10 mL DMEM containing 10% FBS was added to the centrifuge tube. The mixture was vigorously pipetted to prepare a cell suspension. The cell suspension was inoculated to a 100×20 mm Petri dish. Cells were cultured at 37° C. and 5% CO2. When the cell density reached confluent, the cells were digested and seeded onto the wells of a 24-well plate at the density of 2×10^4/well.
2.2. Treatment and groups: after the cells were cultured in the 24-well plate for 24 hours, 5 mM glutamate was added together with the compound each synthesized in Example 1-10 or Example 13 at a final concentration of 1, 10, 50, or 100 μM. DMSO served as vehicle and was added to the cells of the control group at an equal volume. The viability of the cells was detected by MTT method 24 h after the treatment.
2.3. Detection by MTT: 50 μL, 0.5 mg/ml MTT was added to each well 24 h after the treatment of cells. The cells were further incubated at 37° C. and 5% CO2 for 4 h. Subsequently, the supernatant was discarded. The cells were lysed by adding 500 μL dimethyl sulfoxide (DMSO). The absorbance was detected at 570 nm by a microplate reader, which is positively correlated with survival rate of cells. The survival rate of the cells in the treatment groups was expressed as the percent of the survival rate of the cells without glutamate treatment. All data were expressed as mean±standard deviation (SD). Statistical analysis was carried out for all data using SPSS 17.0. The difference between the groups was tested by one way anova. P<0.01 was considered as very significant difference.

microglia cell line BV2 = assay: LPS-induced inflammatory response of microglia, nitrite by Griess reagent; assay type: cell-based; conditions: 200 ng/mL LPS, 24 h, compound at 10-100 μM, vs LPS alone, p<0.01
Experimental: Brain microglia cell line BV-2, 96-well culture plate (Corning, USA), DMEM medium (Hyclone, USA), fetal bovine serum (FBS) (GIBCO, USA), dimethyl sulfoxide (DMSO) (SIGMA, USA), Griess reagent (SIGMA, USA), sodium nitrite (ChemNet, China), microplate reader (BIO-RAD, USA)
2.1. Cell cultures: After taken out of the liquid nitrogen container, BV-2 cells were quickly placed in warm water at 37° C. and gently shaken for thawing. Subsequently, it was centrifuged at 1000 rpm for 3 min, and the supernatant was discarded. […] When 60%-70% of confluence of the passaged cells was achieved, the cells were harvested by centrifugation at 1000 rpm for 3 min. The cells were then stained by trypan blue and counted under a microscope by globulimeter. After cell counting, it was diluted into a suspension containing 150 to 200 thousand of cells/ml, which was then plated in the 96-well plate (15 to 20 thousand of […]).
2.2. Treatment and groups: after the cells were cultured in the […] for 24 h, 200 ng/mL LPS was added together with compound YC1-1 of Example 1, YC1-8 of Example 8 and YC2-2 of Example 12 at a final concentration of 1, 10, 50, or 100 μM. DMSO served as vehicle and was added to the cells of control group at the equal volume. The cells were further incubated in an incubator.
2.3. The amount of nitrite produced was detected 24 h after the atreatment, to characterize the inflammatory response of BV2 cells induced by LPS and the inhibitory effect of compound YC1-1 of Example 1 and compound YC1-8 of Example 8 on the LPS-induced inflammatory response.
Detection method of nitrite: […], supernatant was taken out of the wells of 96-well plate, and added to the corresponding wells of another clean 96-well plate. Subsequently, 50 μL Griess reagent was added to each well, and the OD value was detected at 570 nm. The amount of nitrite was calculated based on the standard curve. The result was expressed as the relative yield of nitrite, wherein the relative yield of the control group treated only by LPS was designated as 1. All data were expressed as mean±standard deviation (SD). […]

[1] = test system: mouse middle cerebral artery occlusion model; assay: Mouse middle cerebral artery occlusion (MCAO) model, infarct volume by TTC staining; assay type: in vivo; conditions: half at 3 h and half at 10 h of reperfusion, 24 h after MCAO, vs vehicle, p<0.05
Experimental: Male ICR mice (body weight of 30±2.0 g) were purchased from Shanghai Laboratory Animal Center, Chinese Academy of Sciences. The mice were raised at room temperature and 12 h cycle of light and dark, with free access to food and water.
2.1. Middle cerebral artery occlusion (MCAO) model: the middle cerebral artery occlusion (MCAO) model was performed by reference to Longa's method or other modified suture-occluded method. The specific experimental procedures were as follows: after anaesthetized by isoflurane, the mouse was fixed in supine position, and the skin of neck and head was sterilized using iodine. The probe of laser-Doppler blood flowmeter was fixed at the midpoint of the line between the ear and the eye on the right side of the mouse to monitor the real-time perfusion in the cerebral cortex. A 1.5 cm incision was made in the middle of the neck to expose common carotid artery on the right side. Tissues were separated under an operating microscope layer by layer. The common carotid artery was first separated which was temporarily ligated 0.5 cm away from the distal end using 5-0 suture. Then, the external carotid artery and internal carotid artery on the right side were subsequently separated and the external carotid artery was ligated 0.5 cm away from the distal end using 5-0 suture. At the same time, the internal carotid artery was temporarily clamped using a mini vascular clamp. Subsequently, a small incision was made by an ophthalmic scissor on the inner side of the ligation at the distal end of the external carotid artery. To occlude the […], one of the ends of the suture was slightly enlarged by heating, coated by silica gel, and sterilized using alcohol. The length of the suture was about 2 cm, and the diameter of the enlarged end was […]. The suture was held using a fine forceps and inserted into the incision on the external carotid artery.). Once the suture passed through the incision of the external carotid artery, the ligation was lifted at the distal end of external carotid artery until the enlarged end of the suture entered the bifurcation of the […]. The suture was then tightened, and the vascular clamp on the internal carotid artery was opened. […] The starting time for occlusion was recorded. For reperfusion, the suture was withdrawn 60 min after middle cerebral artery occlusion. The rectal temperature was maintained at 37.0±0.5° C. by a heating blanket during and after the surgery, until the animal was revived.
2.2 Animal groups and drug administration: the animals were randomly divided into 3 groups, including control group treated with vehicle, YC1-8 group (100 mg/kg) and YC1-8 group (50 mg/kg). There were 8 mice in each group. 12 mg YC1-8 was initially dissolved by 80 μL DMSO, and then diluted by 920 μL corn oil to prepare a solution with the final concentration of 12 mg/mL. One half of dosage of compound YC1-8 was initially administrated at 3 h of reperfusion after ischemia by intraperitoneal injection, while the other half of dosage was administrated at 10 h of reperfusion after ischemia. For the control group, the same volume of DMSO-containing corn oil was administrated to the mice at 3 h and 10 h.
2.3. Detection of the cerebral infarct volumes: 24 h after reperfusion following mouse middle cerebral artery occlusion (MCAO), the mice were sacrificed under anesthetized and the brain was collected. After the brain tissue was stripped off, the olfactory bulb and cerebellum were removed. A series of 5 coronary sections of brain were made at an interval of 1 mm, which were then placed in 2% TTC solution at 37° C. under darkness in a warm bath. The sections were turned over every 15 min, with a total duration of 30 min. The size of cerebral infarction was determined by TTC staining method. Due to the reduction of TTC by […] in mitochondrion, normal brain tissue was red, and the ischemic infarct area was white. […]

SMILES	Concentration range for protection (HT22 cells) [µM]	also measured
Oc1ccc(-c2cc(=S)ss2)cc1 [YC1-1, 5-p-hydroxyphenyl-3H-1,2-dithiacyclopentene-3-thione]	10 to 100	LPS induced inflammatory response of BV2 cells (nitrite production) (microglia cell line BV2): significantly inhibited
Fc1ccc(-c2cc(=S)ss2)cc1 [YC1-2, 5-p-fluorophenyl-3H-1,2-dithiacyclopentene-3-thione]	10 to 100	–
S=c1cc(-c2cccs2)ss1 [YC1-3, 5-(2-thienyl)-3H-1,2-dithiacyclopentene-3-thione]	10 to 100	–
Cc1ccc(-c2cc(=S)ss2)cc1 [YC1-4, 5-p-methylphenyl-3H-1,2-dithiacyclopentene-3-thione]	10 to 100	–
Fc1cc(-c2cc(=S)ss2)c(Cl)cc1Cl [YC1-5, 5-(2,4-dichloro-5-fluorophenyl)-3H-1,2-dithiacyclopentene-3-thione]	1 to 100	–
S=c1cc(-c2ccc3c(c2)OCO3)ss1 [YC1-6, 5-(3,4-methylenedioxyphenyl)-3H-1,2-dithiacyclopentene-3-thione]	1 to 100	–
COc1ccc(-c2cc(=S)ss2)c(OC)c1 [YC1-7, 5-(2,4-dimethoxyphenyl)-3H-1,2-dithiacyclopentene-3-thione]	1 to 100	–
COc1ccc(-c2cc(=S)ss2)cc1 [YC1-8, 5-p-methoxyphenyl-3H-1,2-dithiacyclopentene-3-thione]	10 to 100	infarction volume in cerebral cortex ([1]; 50 mg/kg YC1-8 i.p.): significantly reduced; infarction volume in hemisphere ([1]; 50 mg/kg YC1-8 i.p.): significantly reduced; infarction volume in striatum ([1]; 50 mg/kg YC1-8 i.p.): significantly reduced; infarction volume in cerebral cortex ([1]; 100 mg/kg YC1-8 i.p.): significantly reduced; infarction volume in hemisphere ([1]; 100 mg/kg YC1-8 i.p.): significantly reduced; infarction volume in striatum ([1]; 100 mg/kg YC1-8 i.p.): significantly reduced; LPS induced inflammatory response of BV2 cells (nitrite production) (microglia cell line BV2): significantly inhibited
S=c1cc(-c2ccccc2)ss1 [YC1-9, 5-phenyl-3H-1,2-dithiacyclopentene-3-thione]	1 to 100	–
S=c1cc(-c2ccc3ccccc3c2)ss1 [YC1-10, 5-(2-naphthyl)-3H-1,2-dithiacyclopentene-3-thione]	1 to 100	–
CC(=O)Oc1ccccc1C(=O)Oc1ccc(-c2cc(=S)ss2)cc1 [YC2-2, 4-(3H-1,2-dithio-3-thioketone-5-yl)phenyl 2-acetoxy benzoate]	–	LPS induced inflammatory response of BV2 cells (nitrite production) (microglia cell line BV2): significantly inhibited
O=C(Oc1ccc(-c2cc(=S)ss2)cc1)c1cccnc1 [YC2-3, 4-(3H-1,2-dithio-3-thioketone-5-yl)phenyl pyridine-3-carboxylate]	50 to 100	–
